System: IgE antibodies from soybean-allergic patients
Assay: Immunoblotting of two-dimensional electrophoresis pattern of soybean proteins with patient serum
Format: binding, human
Settings: spot in 2D electrophoresis gel of soybean proteins; patient serum compared with healthy subject serum
Source text: Transfer to membrane was done using the following transfer system and transfer buffer. • Transfer system: XCell SureLock Mini-Cell and XCell II Blot Module (produced by Life Technologies) • Transfer buffer: NuPAGE Transfer Buffer (X20) (produced by Life Technologies), used in a form diluted 20-fold with milliQ water.
To be specific, proteins in the two-dimensional electrophoresis gels were transferred to a membrane (PVDF membrane) according to the following procedure. • (1) The PVDF membrane was immersed in 100% methanol followed by milliQ water, and then moved into the transfer buffer to hydrophilize the PVDF membrane. • (2) After sponge, filter paper, the gels treated by second-dimensional SDS-PAGE, the hydrophilized PVDF membrane, filter paper, and sponge were put in place in this order, the transfer system was energized at a constant voltage of 30 V for one hour.
Immunoblotting of the membrane was carried out using, as a primary antibody, a serum sample from a patient with a soybean allergy or a serum sample from a healthy subject.
Immunoblotting of the membrane was carried out according to the following procedure. • (1) The transferred membrane was shaken in a 5% skim milk/PBST solution (a PBS buffer containing 0.3% Tween 20 nonionic surfactant) at room temperature for one hour. • (2) The membrane was left to stand in a solution of 3% primary antibody serum in 5% skim milk/PBST at room temperature for one hour. • (3) The membrane was washed with a PBST solution (5 min.×3 times). • (4) The membrane was left to stand in a 1:2500 dilution of the secondary antibody, anti-human IgE-HRP (horseradish peroxidase), with a 3% skim milk/PBST solution at room temperature for one hour. • (5) The membrane was washed with a PBST solution (5 min.×3 times). • (6) The membrane was left to stand in Pierce Western Blotting Substrate Plus (produced by Thermo Fisher Scientific) for 5 minutes.
The membrane obtained through the foregoing series of treatments was subjected to fluorescent image scanning on Typhoon 9400 (produced by GE).
The immunoblots obtained with the serum from the soybean-allergic patient were compared with those obtained with the control serum from the healthy subject.

| Substance | specific binding to IgE antibodies from soybean-allergic patients |
| --- | --- |
| methionine synthase [Spot 7α] | specific binding |
| embryo-specific urease isoform X1 [Spot 4α] | specific binding |
| heat shock cognate protein 80 [Spot 2α] | specific binding |
| UTP-glucose-1-phosphate uridylyltransferase [Spot 15α] | specific binding |
| elongation factor 1-alpha [Spot 35α] | specific binding |
| pyrophosphate-fructose 6-phosphate 1-phosphotransferase subunit alpha-like [Spot 12α] | specific binding |
| lysine-tRNA ligase, cytoplasmic-like isoform X2 [Spot 9α] | specific binding |
| glyceraldehyde-3-phosphate dehydrogenase isoform X1 [Spot 29α] | specific binding |
| seed biotin-containing protein SBP65-like isoform X1 [Spot 38α] | specific binding |

System: IgE antibody present in the serum of a patient allergic to a soybean
Assay: Epitope mapping and overlapping peptide fragments on SPOT membrane, immunoblotting
Format: binding, human
Settings: procedure of (B), overlapping
Experimental: Epitope mapping was carried out using a library of overlapping peptide fragments (length: 15 amino acids) corresponding to the sequences of proteins bound patient-specifically to IgE antibodies in serum, which were obtained as a result of 2D-western of soybeans.
The peptides to be synthesized were shifted by 10 amino acids.
For preparation of peptide arrays, peptide synthesis of interest was carried out in incremental steps on a modified cellulose membrane by the Intavis SPOT synthesis technique, which is a technique of synthesizing peptides of interest through 9-fluorenylmethoxycarbonyl (Fmoc) chemical reaction, using an automated synthesis apparatus (Intavis MultiPep RS). […]
The presence or absence of binding, to each peptide fragment, of an IgE antibody present in the serum of a patient allergic to a soybean was measured by immunoblotting using the membrane on which the peptide fragments were synthesized by SPOT. […]
Thereafter, for the sequences of peptides bound patient-specifically to IgE antibodies in serum in the epitope mapping described above in (A), a library of overlapping peptide fragments (length: 10 amino acids) was obtained as sequences having the sequences of these peptides as well as additional sequences subsequent to the peptides in the amino acid sequences of antigen proteins on which the epitopes were detected. […]

| Substance | identified as epitope (common sequence of peptides bound to IgE antibodies from allergic patients) |
| --- | --- |
| SEQ ID NO: 871: amino acids 1-15 of SEQ ID NO: 495 (seed biotin-containing protein SBP65-like isoform X1) (MASEQMPRRENNSNR; epitope) | identified as epitopes |

System: IgE antibody from one patient having allergies to a soybean, a peach and an apple
Assay: ELISA of biotinylated peptides, study on cross-reactivity
Format: binding, human
Settings: FIG. 6
Experimental: The binding activity of peptides comprising the amino acid sequences of SEQ ID NOS: 871, 984 and 985 against an IgE antibody from one patient having allergies to a soybean, a peach and an apple was confirmed by ELISA. The peptides were synthesized such that the peptides were N-terminally biotinylated by the Fmoc method.
To be specific, ELISA was carried out according to the following procedure. • (1) The concentrations of the biotinylated peptides were adjusted to 1 μg/mL with PBST. • (2) Each peptide solution was added at 40 μL to each well of a 384-well plate coated with streptavidin, and shaken at room temperature for one hour. After collection of the solution, the wells were washed with PBS five times. • (3) A 1:5 dilution of Blocking one (diluted with MQ) was added at 40 μL thereto and shaken at room temperature for 15 minutes. After removal of the solution, the wells were washed with PBS five times. • (4) A diluted serum solution (1:10, diluting solution: Blocking one produced by Nacalai Tesque, Inc.) was added at 40 μL thereto and shaken at room temperature for one hour. After removal of the solution, the wells were washed with PBS five times. • (5) A diluted secondary antibody solution (1:5000, diluting solution: Blocking one produced by Nacalai Tesque, Inc.) was added at 40 μL thereto and shaken at room temperature for one hour. […] Absorbance at 450 nm was measured.

| binding to IgE antibody from the allergic patient compared with IgE antibody from a healthy subject | Substance |
| --- | --- |
| bound more strongly | SEQ ID NO: 871: amino acids 1-15 of SEQ ID NO: 495 (seed biotin-containing protein SBP65-like isoform X1) (MASEQMPRRENNSNR; epitope) |

Same assay, conditions: peptide 1 μg/mL, serum 1:10, absorbance at 450 nm, FIG. 6

| binding activity against the IgE antibody from the patient | Substance |
| --- | --- |
| exhibited binding activity | SEQ ID NO: 871: amino acids 1-15 of SEQ ID NO: 495 (seed biotin-containing protein SBP65-like isoform X1) (MASEQMPRRENNSNR; epitope) |

From patent US20250262297A1, “ALLERGY ANTIGEN AND EPITOPE THEREOF” (HOYU CO., LTD., priority 2017, published 2025)
